From patent US6800247B1, “Deactivants for dust mite allergens” (priority 1997, dated 2004)
Counter-ions that a name gives are not always drawn. Like-named read-outs stand apart in the source and are kept apart here.

How the values were obtained:
Assay type in all cases: biochemical
Der-f allergens [1] = molecular target: T1, Der-f allergens (Dermatophagoides farinae, UniProt P16311); design: Amount of Allergen remaining active after deactivant treatment: unit not given here
T1 construct: Dust is collected from Hoover™ vacuum cleaner bags and passed through a series of sieves down to 63 microns; from tissue; host or cells: house dust from vacuum cleaner bags, sieved to 63 microns
T1 sequence (P16311 99-321): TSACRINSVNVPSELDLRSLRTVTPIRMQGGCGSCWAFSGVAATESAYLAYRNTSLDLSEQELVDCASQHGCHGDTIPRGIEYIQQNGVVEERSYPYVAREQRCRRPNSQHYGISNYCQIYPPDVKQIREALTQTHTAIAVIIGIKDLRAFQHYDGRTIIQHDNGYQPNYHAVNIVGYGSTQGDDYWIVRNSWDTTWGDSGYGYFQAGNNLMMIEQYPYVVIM
Experimental: (§1) The ELISA protocol for Der-f and Der-p has been developed as follows as a measure of denaturing property for denaturants.
(§2) 1. Dust is collected from Hoover™ vacuum cleaner bags and passed through a series of sieves down to 63 microns.
(§3) 2. Clean petri dishes are labelled with the chemical to be tested (on the base). Three replicates are used for each treatment.
(§4) 3. Filter paper is used to line each dish and 0.2 g of dust is added to each dish onto the filter paper. The lid (or base, as dishes are inverted) is replaced and the dish is shaken to disperse the dust evenly over the filter paper.
(§5) 4. 2% aqueous solutions of deactivant were used except for the silver chloride composite where 0.05% was used instead. Immobilised tannic acid was used as a 1% dispersion. The hydrogenerated hop end was used at the 2% level (in the form of a 10% solution). Water-insoluble deactivants were emulsified with a sorbitone oleate surfactant (i.e. Tween). Hinokitol was used at 0.5% not 2%.
(§6) 5. The dust is sprayed with the corresponding treatment, 2 sprays are required for sufficient coverage (1 spray=1.5 ml).
(§7) 6. Leave uncovered at room temperature, in well aerated room, until filter paper is dry. This can take up to 4 hours.
(§8) 7. Empty dust in epindorfs labelled according to treatment.
(§9) 8. Add 1 ml of 5% Bovine Serum Albumen Phosphate Butter Saline—Tween BSA-PBS-T to each epindorf (5 times the weight of dust) (20 ml of BSA-PBS-T=1 g of BSA in 20 ml of PBS-T).
(§10) 9. Leave overnight in a refrigerator.
(§11) 10. Centrifuge for 5 minutes at 13,000 rpm.
(§12) 11. Decant the supernatant into a new epindorf labelled according to treatment.
(§13) 12. Centrifuge again for 5 minutes at 13,000 rpm.
(§14) 13. Make up dilutions of 1:10 and 1:100 by adding 100 μl of neat solution to 900 μl of 1% BSA-PBS-T (1:10). This is repeated using 100 μl of 1:10 dilution and add to 900 μl of 1% BSA-PBS-T for 1:100 dilution.
(§15) ELISA Protocol 2 for Der-f and Der-p: Indoor Biotechnologies
(§16) 1. Prepare samples and dilutions as in protocol
(§17) 2. Prepare 500 ml of 50 mM carbonate/bicarbonate buffer by dissolving 0.795 g Na2CO3 and 1.465 g NaHCO3 in 500 ml of distilled water. Check the pH is at 9.6. (This solution is kept in the refrigerator in a conical flask).
(§18) 11 ml of carbonate/bicarbonate buffer is added to the dispensing tray.
(§19) 11 μl of Der-f1 or Der-p1 monoclonal antibody
(§20) (Stored in freezer, epindorf in use is in the refrigerator) is added to the buffer. To ensure that all the antibody is removed from the tip, wash out the pipette tip by sucking up and down I the buffer solution, gently stirring to mix thoroughly.
(§21) 4. Pipette 100 μl of the antibody solution into each well of the microtiter plate, cover with a plate sealer and leave overnight at 4° C.
(§22) 5. Empty the plate by quickly inverting it over the sink, then dry by banging on a stack of paper towels.
(§23) 6. Add 200 μl of wash buffer to each well: PBS/0/05% tween (PBS-T)
(§24) 7. Repeat stages 5 and 6 once more (making a total of 2 washes).
(§25) 8. Make sure all the wells are dry, then add 100 μl of 1% BSA-PBS-T. Replace the plate sealer and incubate for 1 hour at room temperature*.
(§26) 9. Repeat steps 5 to 7 (2 washes).
(§27) This is mixed thoroughly.
(§28) 11. Add 100 μl aliquots of the allergen sample to the plate along with the standard allergen samples for the reference curve in duplicate. The standards usually go in the first two columns on the left hand side, with the least concentrated on top. Incubate for 1 hour.
(§29) 12. Follow stages 5 to 6, completing a total of 5 washes.
(§30) 13. Pour 11 ml of 1% BSA-PBS-T(0.11 g of BSA to 11 ml of PBS-T) to the dispensing tray. Add 11 μl of the biotinylated monoclonal antibody (refrigerator) and mix thoroughly.
(§31) 14. Pipette 100 μl into each well and incubate for 1 hour at room temperature.
(§32) 15. Empty plate and wash as described in stage 12. (5 washes).
(§33) 16. Add 11 μl of Streptavidin (freezer) to 11 ml of 1%BSA-PBS-T. Pipette 100 μl into each well and incubate for 30 minutes. Reserve any remaining solution in a vial.
(§34) 17. Empty plate and wash as described in stage 12 (5 washes).

Der-f allergens [2] = molecular target: T1, Der-f allergens; conditions: for Ratio of actives remaining after deactivant treatment over those remaining after tannic acid treatment: Examples 48-55, tested as above and compared with tannic acid
Experimental: as §1, §2, §3, §4, §5, §6, §7, §8, §9, §10, §11, §12, §13, §14, §15, §16, §17, §18, §19, §20, §21, §22, §23, §24, §25, §26, §27, §28, §29, §30, §31, §32, §33, §34

Der-p allergens = molecular target: T2, Der-p allergens (Dermatophagoides pteronyssinus, UniProt P08176); experiment: Deactivation of Der-p allergens (ELISA protocol), summary statement
T2 construct: Dust is collected from Hoover™ vacuum cleaner bags and passed through a series of sieves down to 63 microns; from tissue; host or cells: house dust from vacuum cleaner bags, sieved to 63 microns
T2 sequence (P08176 99-320): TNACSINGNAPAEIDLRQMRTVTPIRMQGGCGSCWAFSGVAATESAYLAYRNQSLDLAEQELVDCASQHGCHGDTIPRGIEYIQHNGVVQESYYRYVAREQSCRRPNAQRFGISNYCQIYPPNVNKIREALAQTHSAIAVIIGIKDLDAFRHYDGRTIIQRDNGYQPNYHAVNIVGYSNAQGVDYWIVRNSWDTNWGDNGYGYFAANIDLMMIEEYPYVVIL
Experimental: The test procedure in Examples 1 to 55 is as follows and is known as the ELISA protocol.
as §1, §15, §19

[3] = Der-f, 0.2 g sieved house dust sprayed with 2% aqueous deactivant (AgCl composite 0.05%, immobilised tannic acid 1%, hinokitol 0.5%)
[4] = Der-f, compared with vacuuming only, no deactivant, 2% deactivant (AgCl composite 0.05%, immobilised tannic acid 1%, hinokitol 0.5%)

Compound | Ratio of remaining active allergen after Deactivant/Tannic Acid Treatment (Der-f allergens [1]) | Amount of Allergen remaining active after deactivant treatment (Der-f allergens [1]; [3]) | Amount of active Allergen remaining after deactivant treatment (Der-f allergens [2]; [4]) | Amount of Allergen remaining active after deactivant treatment (Der-f allergens [1]) | Amount of active Allergen remaining after deactivant treatment (Der-f allergens [2]) | Ratio of actives remaining after deactivant treatment over those remaining after tannic acid treatment (Der-f allergens [2]) | Effectiveness against Der-p allergens (Der-p allergens) | Ratio of remaining active allergen after Deactivant/Tannic Acid Treatment (Der-f allergens [1]; Der-f, ratio below 1 = better than tannic acid)
CCCOCC(C)O (centres unmarked) [1-propoxy-propanol-2] | 2.194 | 3950 | 1233 | – | – | – | – | –
CCCCC(CC)COC(=O)CC(C(=O)OCC(CC)CCCC)S(=O)(=O)[O-].[Na+] (centres unmarked) [Aerosol OT] | 1.298 | 1525 | 4494 | – | – | – | – | –
N.N.O=S(=O)(O)O [Ammonium sulphate, ammonium sulphate] | 1.618 | – | – | 2750 | 2325 | – | – | –
O=C1c2ccccc2C(=O)c2ccccc21 [Anthraquinone sodium salt, the sodium salt of anthraquinone] | 0.765 | 1530 | – | – | – | – | – | –
N=C(NCCCCCCNC(=N)NC(=N)Nc1ccc(Cl)cc1)NC(=N)Nc1ccc(Cl)cc1 [Chlorohexidine, 1,1′-hexamethylenebis [5-(4-chlorophenyl)]-biguanide] | 0.991 | 1412.5 | 2281 | – | – | 3.0 | – | –
O=C(NCO)N(CO)C1(CO)C(=O)NC(=O)N1CO (centres unmarked) [Germall II, diazolidinylurea] | 0.685 | 950 | – | – | – | 1.5 | – | –
O=CCCCC=O [Glutaraldehyde, qlutaraldehyde] | – | – | 816 | – | – | 1.5 | effective against Der-p allergens only | –
CC(C)c1cccc(=O)c(O)c1 [Hinokitol, β-thujaplicin] | 1.533 | 3065 | 2058 | – | – | – | – | –
O=C1O[C@H]([C@@H](O)CO)C(O)=C1O [L-Ascorbic Acid, L-ascorbic acid] | 1.333 | 2000 | 1438 | – | – | – | – | –
O=C1C=CC(=O)O1 [Maleic anhydride, maleic anhydride] | 0.875 | 1312.5 | 783 | – | – | 1.0 | – | –
CN1CCCC1=O [N-methyl pyrrolidone, N-methylpyrrolidone] | 1.362 | 1600 | – | – | – | 4.0 | – | –
C=CCc1cc(OC)c2c(c1OC)OCO2 [Parsley Camphor] | – | 1225 | 2581 | – | – | – | – | 0.883
O=C([O-])CS.[K+] [Potassium thioglycolate, potassium thioglycolate] | – | – | 3092 | – | – | – | effective against Der-p allergens only | –
Cc1ccc(C(C)C)c(O)c1 [Thymol, 6-isopropyl-m-cresol] | 0.523 | 725 | 1500 | – | – | 4.0 | – | –
NC(N)=O [Urea, urea] | 2.500 | 3750 | – | – | – | – | – | –
CCCCCCCCCCCCCCCC[N+](C)(C)C.[Cl-] [hexadecyltrimethylammonium chloride] | 2.264 | 4075 | 2863 | – | – | – | – | –
aluminium chlorohydrate | 2.233 | 1675 | 978 | – | – | – | – | –
cyclodextrin | 2.265 | 3850 | – | – | – | – | – | –
